These are literature values, as cited in patent US20160030469A1, “Human End Uses for a Gas Transporting Rheological Medium” (priority 2014, published 2016).

Each structure is given as a SMILES string.

The conditions of this data set: equilibrium with air (pO2=0.21) at 77° F.

For the molecule `O=O` [oxygen], the “solubility limit of oxygen in water” value was “approximately 8.3 mg/l”.
